The subject of one experiment is K562. Kind of experiment: Cytotoxicity against human K562 cells assessed as reduction in cell viability incubated for 72 hrs by Alamar blue assay. The class given is functional, cell-based. The settings on record: K562, 72 h. On the technique in general: Alamar Blue is a resazurin reagent that responds to reducing activity.
Another experiment has as its system HL-60. Kind of experiment: Cytotoxicity against human HL-60 cells assessed as reduction in cell viability incubated for 72 hrs by Alamar blue assay. The class given is functional, cell-based. The note with it: HL-60, 72 h.
A further experiment concerns B16-F10. Kind of experiment: Cytotoxicity against mouse B16-F10 cells assessed as reduction in cell viability incubated for 72 hrs by Alamar blue assay. The class given is functional, cell-based. The settings on record: B16-F10, 72 h.
A further experiment has as its system HepG2. The experiment is described as follows: Cytotoxicity against human HepG2 cells assessed as reduction in cell viability incubated for 72 hrs by Alamar blue assay. The class given is functional, cell-based. The settings on record: HepG2, 72 h.
A short description of experiment [1]: Cytotoxicity against human PBMC cells assessed as reduction in cell viability incubated for 72 hrs by Alamar blue assay. The class given is cell-based.

As to `COc1cccc2c1C(=O)c1c(O)c3c(c(O)c1C2=O)C[C@@](O)(C(=O)CO)C[C@@H]3O[C@H]1C[C@H](N)[C@H](O)[C@H](C)O1` [DOXORUBICIN], the half-inhibitory concentration (IC50) (in general, the concentration at which inhibition is half-maximal) in the experiment on K562 is 0.7 µM; in the experiment with HL-60, 0.8 µM; in the experiment with B16-F10 it was 2.3 µM; in the experiment with HepG2, 0.2 µM.
For `O=C1c2ccccc2-c2c3c(cc4ccnc1c24)OCO3` [LIRIODENINE], the half-maximal inhibitory concentration (IC50) in experiment [1] is 34.8 µM; with K562 it was 5 µM; in the experiment on HL-60 it was 5.5 µM; in the experiment on B16-F10, over 10 µM; in the experiment with HepG2, 8.3 µM.

Values taken from ChEMBL document CHEMBL4715739, “7,7-Dimethylaporphine and Other Alkaloids from the Bark of Guatteria friesiana” (J Nat Prod, 2016).
